We go through 53 molecules from ChEMBL document CHEMBL3727368, “Thienopyrimidine inhibitors of atypical protein kinase C” (2013).

The first experiment has as its target T1, Protein kinase C iota type (Homo sapiens, UniProt P41743).
T1 sequence (P41743 whole entry): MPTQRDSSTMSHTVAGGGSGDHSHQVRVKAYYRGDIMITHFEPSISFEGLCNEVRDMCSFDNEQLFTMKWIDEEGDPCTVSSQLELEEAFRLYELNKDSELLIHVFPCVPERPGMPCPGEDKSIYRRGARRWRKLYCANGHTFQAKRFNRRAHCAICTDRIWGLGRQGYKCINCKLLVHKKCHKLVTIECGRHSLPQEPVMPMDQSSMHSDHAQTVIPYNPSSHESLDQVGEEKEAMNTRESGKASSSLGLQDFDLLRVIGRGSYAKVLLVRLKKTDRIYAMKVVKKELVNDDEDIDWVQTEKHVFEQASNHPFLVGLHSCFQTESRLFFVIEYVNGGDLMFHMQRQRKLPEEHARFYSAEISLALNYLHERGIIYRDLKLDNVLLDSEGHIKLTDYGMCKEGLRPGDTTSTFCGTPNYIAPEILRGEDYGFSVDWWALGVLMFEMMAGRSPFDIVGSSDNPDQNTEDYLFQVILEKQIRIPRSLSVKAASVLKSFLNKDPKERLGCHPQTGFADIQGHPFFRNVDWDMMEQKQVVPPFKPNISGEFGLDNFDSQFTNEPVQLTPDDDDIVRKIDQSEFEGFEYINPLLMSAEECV
Nature of the experiment: Inhibition of recombinant human PKC-iota kinase domain expressed in Sf21 cells using FAM-PKCs pseudopeptide derived peptide substrate and 25 uM ATP by fluorescence polarization based IMAP assay.
As for `Cc1csc2nc(-c3ccncc3)nc(N3CCNCC3)c12`, the IC50 is < 100 nM.

As for `Cc1csc2c(NC[C@@H](N)Cc3ccccc3)nc(-c3ccncc3)nc12`, the IC50 is < 100 nM. For `Cc1ccc(CN2CCN(c3nc(-c4ccncc4)nc4sc5c(c34)CCCC5)CC2)cc1`, the IC50 was ≥ 10000 nM. As for `C[C@H](N)CNc1nc(-c2ccncc2)nc2sc3c(c12)CCCC3`, the IC50 is < 100 nM.

The target of another experiment is T1, Protein kinase C iota type. Nature of the experiment: Inhibition of recombinant full-length human PKC-iota expressed in Sf21 cells using FAM-PKCs pseudopeptide derived peptide substrate and 150 uM ATP by fluorescence polarization based IMAP assay.
For `Brc1csc2c(N[C@@H]3CCNC3)nc(-c3ccncc3)nc12`, the IC50 is < 100 nM. Take `Cc1sc2c(NC[C@@H](N)Cc3ccccc3)nc(-c3ccncc3)nc2c1-c1ccn[nH]1`: the IC50 was < 100 nM. Still for that read-out and setting: with `N[C@H](CNc1nc(-c2ccncc2)nc2c(-c3ccccc3Cl)c(C(F)(F)F)sc12)Cc1ccccc1` the figure was ≥ 10000 nM.

With `CC(C)(C)OC(=O)N1CCc2c(sc3nc(-c4ccncc4)nc(NCCN)c23)C1`, the IC50 was ≥ 10000 nM. Still for that read-out and setting: with `CCC[C@@H](O)[C@H](O)C#Cc1csc2c(NC[C@@H](N)Cc3ccccc3)nc(-c3ccncc3)nc12` the figure was ≥ 1000 nM; with `N[C@H](CNc1nc(-c2ccncc2)nc2c(C#CC3(O)CCCC3)csc12)Cc1ccccc1`, < 100 nM; with `N[C@H](CNc1nc(-c2ccncc2)nc2c(NC(=O)C3CCCC3)csc12)Cc1ccccc1`, ≥ 10000 nM. Regarding `CCc1cc(-c2csc3c(NC[C@@H](N)Cc4ccccc4)nc(-c4ccncc4)nc23)[nH]n1`, the half-inhibitory concentration (IC50) was < 100 nM. Still for that read-out and setting: with `N[C@H](CNc1nc(-c2ccncc2)nc2c(/C=C/C3CC3)csc12)Cc1ccccc1` the figure was < 100 nM; with `N[C@H](CNc1nc(-c2ccncc2F)nc2c(C#CCO)csc12)Cc1ccccc1`, < 100 nM. As for `C[C@H](O)C#Cc1csc2c(NC[C@@H](N)Cc3ccccc3)nc(-c3ccncc3)nc12`, the IC50 was < 100 nM. `N[C@H](CNc1nc(-c2ccncc2)nc2c(C#Cc3cc[nH]n3)csc12)Cc1ccccc1`: the IC50 is < 100 nM.

`C/C=C\c1csc2c(NC[C@@H](N)Cc3ccccc3)nc(-c3ccncc3)nc12`: the IC50 was < 100 nM. `N[C@H](CNc1nc(-c2ccncc2)nc2c(Cl)csc12)Cc1ccccc1`: the half-inhibitory concentration (IC50) is < 100 nM. Same read-out and setting: with `N[C@H](CNc1nc(-c2ccncc2F)nc2c(Br)csc12)Cc1ccccc1` the figure was < 100 nM; with `N[C@H](CNc1nc(-c2ccncc2)nc2c(C#CCF)csc12)Cc1ccccc1`, < 100 nM. For the molecule `N[C@H](CNc1nc(-c2ccncc2)nc2c(-c3ccn[nH]3)csc12)Cc1ccccc1`, the IC50 was < 100 nM. As for `CC(C)S(=O)(=O)c1cccc(Nc2cc(-c3nc(N[C@@H]4CCNC4)c4sccc4n3)ccn2)c1`, the IC50 is ≥ 1000 nM. For the molecule `C[C@@H](O)C#Cc1csc2c(NC[C@@H](N)Cc3ccccc3)nc(-c3ccncc3)nc12`, the IC50 was < 100 nM. On to `CC[C@H](O)C#Cc1csc2c(NC[C@@H](N)Cc3ccccc3)nc(-c3ccncc3)nc12`, for which the IC50 is < 100 nM. Consider `N[C@H](CNc1nc(-c2ccncc2)nc2c(Nc3ccon3)csc12)Cc1ccccc1`, for which the IC50 is < 100 nM. Same read-out and setting: the value for `C[C@@H](F)C#Cc1csc2c(NC[C@@H](N)Cc3ccccc3)nc(-c3ccncc3)nc12` was < 100 nM. Turning to `CC#Cc1csc2c(NC[C@@H](N)Cc3ccccc3)nc(-c3ccncc3)nc12`, the IC50 was < 100 nM. As for `N[C@H](CNc1nc(-c2ccncc2)nc2c(C#CCO)csc12)Cc1ccccc1`, the IC50 was < 100 nM.

On to `CC(O)C#Cc1csc2c(NC[C@@H](N)Cc3ccccc3)nc(-c3ccncc3)nc12` (stereo partly drawn), for which the IC50 is < 100 nM. As to `N[C@H](CNc1nc(-c2ccncc2)nc2c(Br)csc12)Cc1ccccc1`, the IC50 was < 100 nM.

On to `CC(O)CC#Cc1csc2c(NC[C@@H](N)Cc3ccccc3)nc(-c3ccncc3)nc12` (stereo partly drawn), for which the IC50 was < 100 nM.

For `CC(C)(O)C#Cc1csc2c(NC[C@@H](N)Cc3ccccc3)nc(-c3ccncc3)nc12`, the IC50 is < 100 nM. Consider `N[C@H](CNc1nc(-c2ccncc2)nc2c(C#CC3CC3)csc12)Cc1ccccc1`, for which the IC50 was < 100 nM. Same read-out and setting: with `N[C@H](CNc1nc(-c2ccncc2)nc2c(C#CCCO)csc12)Cc1ccccc1` the figure was < 100 nM. Turning to `N[C@H](CNc1nc(-c2ccncc2)nc2c(-c3cn[nH]n3)csc12)Cc1ccccc1`, the IC50 is < 100 nM. Same read-out and setting: the value for `CNC(=O)c1csc2c(NC[C@@H](N)Cc3ccccc3)nc(-c3ccncc3)nc12` was < 100 nM; that for `COCC#Cc1csc2c(NC[C@@H](N)Cc3ccccc3)nc(-c3ccncc3)nc12` was < 100 nM.

On to `N[C@H](CNc1nc(-c2ccncc2)nc2c(Nc3ccccn3)csc12)Cc1ccccc1`, for which the IC50 was < 100 nM.

As to `N#Cc1csc2c(NC[C@@H](N)Cc3ccccc3)nc(-c3ccncc3)nc12`, the half-inhibitory concentration (IC50) was < 100 nM. Turning to `N[C@H](CNc1nc(-c2ccncc2)nc2c(C#CC3(O)CCC3)csc12)Cc1ccccc1`, the IC50 was < 100 nM. For `N[C@H](CNc1nc(-c2ccncc2)nc2c(C#CC3(O)CC3)csc12)Cc1ccccc1`, the IC50 is < 100 nM. As for `C=Cc1csc2c(NC[C@@H](N)Cc3ccccc3)nc(-c3ccncc3)nc12`, the concentration for half-maximal inhibition (IC50) was < 100 nM. On the same count and under the same terms, with `c1cc(-c2nc(N[C@@H]3CCNC3)c3scc(-c4ccn[nH]4)c3n2)ccn1` the figure was < 100 nM.

With `Cc1sc2c(NC[C@@H](N)Cc3ccccc3)nc(-c3ccncc3)nc2c1C#CC(C)(C)O`, the IC50 was < 100 nM. The same measure, in the same setting: the value for `N[C@H](CNc1nc(-c2ccncc2)nc2c(/C=C/C(=O)O)csc12)Cc1ccccc1` was ≤ 1000 nM; that for `Cc1sc2c(NC[C@@H](N)Cc3ccccc3)nc(-c3ccncc3)nc2c1Br` was < 100 nM.

For `Cc1cc(-c2csc3c(NC[C@@H](N)Cc4ccccc4)nc(-c4ccncc4)nc23)n[nH]1`, the IC50 was < 100 nM.

Consider `C[C@H](O)C#Cc1csc2c(N[C@@H]3CCNC3)nc(-c3ccncc3)nc12`, for which the IC50 is < 100 nM. With `F[C@H]1NCC[C@H]1Nc1nc(-c2ccncc2)nc2ccsc12`, the IC50 is ≥ 10000 nM.

Turning to `C#Cc1csc2c(NC[C@@H](N)Cc3ccccc3)nc(-c3ccncc3)nc12`, the IC50 was < 100 nM.

Regarding `N[C@H](CNc1nc(-c2ccncc2)nc2c(C3CC3)csc12)Cc1ccccc1`, the IC50 is < 100 nM. As to `N[C@H](CNc1nc(-c2ccncc2)nc2sc3c(c12)CCCC3)Cc1ccccc1O`, the IC50 is < 100 nM.

`N[C@H](CNc1nc(-c2ccncc2F)nc2c(-c3cc[nH]n3)csc12)Cc1ccccc1`: the IC50 was < 100 nM.
